Experiments:
Format in all cases: biochemical
[1] = tested on: unfractionated heparin, Calciparine®; assay: evaluation method for heparin neutralization by anti-Xa activity (chromogenic para-nitroaniline substrate) with unfractionated heparin; conditions: for percentage neutralization of Calciparine®, 100×(1−ΔA1/ΔA2): heparin concentrations between 0 and 1.67 IU/ml
Source text: (§1) Before referring to the diagrams of the figures, the evaluation method used to quantify the neutralization of the glycosaminoglycans in a blood sample, and in particular a plasma, will be described. This method makes it possible to use both unfractionated heparins and low-molecular-weight heparins. In addition, the method endeavors to test the activity of factor Xa, located at the crossroads of two enzymatic cascades resulting in the formation of thrombin. Moreover, antithrombin, which is a natural inhibitor of thrombin generation, controls the reaction. As soon as it appears, factor Xa couples to its natural substrate, prothrombin, so as to form thrombin. The heparin contained in the sample forms, itself, a complex with antithrombin, which complex promotes the inhibition of factor Xa.
(§2) Thus, a chromogenic substrate based on para-nitroaniline, which factor Xa hydrolyzes, is used and the release of the para-nitroaniline, which can be measured optically, is then inversely proportional to the concentration of heparin present in the medium. A measurement of the anti-Xa activity is thus deduced therefrom.
In this first example, the heparin used is an unfractionated calcium heparin sold under the brand name: “Calciparine®”. According to the evaluation method, the anti-Xa activity is recorded and transferred onto the y-axis, as a function of the heparin concentration of the medium. The heparin concentrations vary between 0 and 1.67 IU/ml and are relatively close to the therapeutic concentrations. The first inclined curve 10 corresponds to a first series of measurements wherein physiological saline is added to the blood sample in addition to the para-nitroaniline-based substrate, while the second inclined curve 12 corresponds to a second series of measurements wherein a neutralizing synthetic polymer, polybrene, intended to neutralize the anticoagulant effects of the heparin, is added to the blood sample. This compound is well known for its effects on heparin and is usually employed in methods for measuring the activity of proteolytic enzymes in order to actually dispense with the anticoagulant effect of heparin.
(§3) The percentage neutralization by the synthetic polymer is determined as being the ratio of the difference in the variation in anti-Xa activity in the medium containing the physiological saline and in the medium containing the neutralizing agent, between two heparin concentrations, and only the variation in activity in the medium containing the physiological saline, between the same two heparin concentrations, this ratio being multiplied by 100 in order to obtain the result as percentage neutralization.
(§4) The percentage neutralization can also be written more compactly: 100×(1−ΔA1/ΔA2), wherein ΔA1 corresponds to the variation in activity in the presence of neutralizing compound and ΔA2 to the variation in the presence of physiological saline. Thus, the parallel measurement of the variation in the presence of physiological saline makes it possible to establish the reference in each series of measurements.

[2] = target: T1, thrombin (Homo sapiens, UniProt P00734); assay: measuring method: thrombin generation fluorescent signal in a blood sample containing heparin
T1 construct: from tissue; host or cells: blood sample (plasma) containing heparin; thrombin generation triggered with tissue factor and calcium
Method: According to one embodiment of the measuring method, the enzymatic activity monitored is that of thrombin generation. The principle lies in the monitoring of the measurement of a fluorescent signal after the enzyme substrate has been brought into contact with a blood sample containing heparin, and the reaction conditions allow the thrombin to cleave the substrate between the peptide part and the fluorophore, in this case rhodamine110.
In order to implement the method, a blood sample of 40 μL containing heparin is first of all introduced into a microcuvette. 10 μL of the enzyme substrate in accordance with the invention mixed with an initiating reagent, and 10 μL of activating reagent are added thereto. The initiating reagent is […] and it has a concentration of 16.7×10^−3 mol.L^−1. The activating reagent is tissue factor at a concentration of 10^−12 mol.L^−1.
Next, an excitation signal having a predetermined wavelength is emitted through the microcuvette and the response to the excitation signal is recorded optically over time. Thus, the greater the amount of thrombin generated, the greater the signal response.
According to one particular embodiment, the enzyme substrate chosen is that corresponding to the embodiment variant V(3) of the first part of the detailed description, and of synthetic formula (R^2−GGR)2-Rhod110. […]

[3] = tested on: low-molecular-weight heparin, Fragmine®; assay: evaluation method for heparin neutralization by anti-Xa activity (chromogenic para-nitroaniline substrate) with low-molecular-weight heparin
Source text: as §1, §2, §3, §4
Still in this first part of the description, the abovementioned evaluation method was implemented with a low-molecular-weight heparin, Fragmine®.

(R^2GGR)2-Rhod110 [V(3)]
percentage neutralization of Calciparine® ([1]; heparin 0.42 IU/ml): 90% | percentage neutralization of Calciparine® ([1]; heparin 0.83 IU/ml): 93% | percentage neutralization of Calciparine® ([1]; heparin 1.25 IU/ml): 94% | percentage neutralization of Calciparine® ([1]; heparin 1.67 IU/ml): 96% | effect of heparin on the thrombin activity measurement (signal curve with versus without heparin) ([2]; unfractionated heparin 1.5 IU/ml, FIG. 5): very small effect | percentage neutralization of Fragmine® ([3]; heparin 0.42 IU/ml): 88% | percentage neutralization of Fragmine® ([3]; heparin 0.83 IU/ml): 90% | percentage neutralization of Fragmine® ([3]; heparin 1.25 IU/ml): 91% | percentage neutralization of Fragmine® ([3]; heparin 1.67 IU/ml): 91%

R^2GGR-Rhod110-Benzoic [V(5)]
percentage neutralization of Calciparine® ([1]; heparin 0.42 IU/ml): 100% | percentage neutralization of Calciparine® ([1]; heparin 0.83 IU/ml): 97% | percentage neutralization of Calciparine® ([1]; heparin 1.25 IU/ml): 98% | percentage neutralization of Calciparine® ([1]; heparin 1.67 IU/ml): 98% | percentage neutralization of Fragmine® ([3]; heparin 0.42 IU/ml): 77% | percentage neutralization of Fragmine® ([3]; heparin 0.83 IU/ml): 75% | percentage neutralization of Fragmine® ([3]; heparin 1.25 IU/ml): 75% | percentage neutralization of Fragmine® ([3]; heparin 1.67 IU/ml): 74%

(EtM-VR)2-Rhod110 [V(2)]
percentage neutralization of Calciparine®, 100×(1−ΔA1/ΔA2) [1]: ~100% | percentage neutralization of Fragmine® ([3]; heparin 0.42 IU/ml): 71% | percentage neutralization of Fragmine® ([3]; heparin 0.83 IU/ml): 78% | percentage neutralization of Fragmine® ([3]; heparin 1.25 IU/ml): 79% | percentage neutralization of Fragmine® ([3]; heparin 1.67 IU/ml): 78%

R^2GGR-Rhod110-H [V(4)]
percentage neutralization of Calciparine® ([1]; heparin 0.42 IU/ml): 96% | percentage neutralization of Calciparine® ([1]; heparin 0.83 IU/ml): 90% | percentage neutralization of Calciparine® ([1]; heparin 1.25 IU/ml): 89% | percentage neutralization of Calciparine® ([1]; heparin 1.67 IU/ml): 80% | percentage neutralization of Fragmine® ([3]; heparin 0.42 IU/ml): 83% | percentage neutralization of Fragmine® ([3]; heparin 0.83 IU/ml): 83% | percentage neutralization of Fragmine® ([3]; heparin 1.25 IU/ml): 72% | percentage neutralization of Fragmine® ([3]; heparin 1.67 IU/ml): 64%

EtM-VR-Rhod110-Ac [reference compound]
strength of the thrombin activity signal relative to the series of measurements without heparin ([2]; heparin 1.5 IU/ml, after 30 minutes, FIG. 7): ~3%

R^2GGR-Rhod110-R [V(1)]
percentage neutralization of Calciparine®, 100×(1−ΔA1/ΔA2) [1]: ~100% | percentage neutralization of Fragmine® ([3]; heparin 0.42 IU/ml): 64% | percentage neutralization of Fragmine® ([3]; heparin 0.83 IU/ml): 65% | percentage neutralization of Fragmine® ([3]; heparin 1.25 IU/ml): 64% | percentage neutralization of Fragmine® ([3]; heparin 1.67 IU/ml): 72%

Reference: patent publication US20130023001A1, “USE OF A SUBSTRATE IN A METHOD FOR MEASURING THE ACTIVITY OF PROTEOLYTIC ENZYMES” (priority 2011, published 2013)
